Several values for one entry are separate records, joined by “and”; a condition that tells them apart may be missing. Identical values can stand only once. ± gives the expanded uncertainty stated by the source.
Details: Fluid (supercritical or subcritical phases); for mass density: Buoyancy - hydrostatic balance with magnetic suspension - one sinker; for viscosity: vibrating wire

CCC [propane]
Details	mass density	viscosity
273.15 K, 40.93 kPa	0.80164 ± 0.0028 kg/m3	0.00744 ± 4.5e-05 mPa·s
273.15 K, 51.05 kPa	1.002 ± 0.003 kg/m3	0.007443 ± 4.5e-05 mPa·s
273.15 K, 100.76 kPa	1.999 ± 0.0048 kg/m3	0.007443 ± 4.5e-05 mPa·s
273.15 K, 149.62 kPa	3.0011 ± 0.0067 kg/m3	0.007435 ± 4.5e-05 mPa·s
273.15 K, 196.97 kPa	3.9945 ± 0.0087 kg/m3	0.007431 ± 4.5e-05 mPa·s
273.15 K, 243.87 kPa	5.0016 ± 0.011 kg/m3	0.007424 ± 4.5e-05 mPa·s
273.15 K, 289.3 kPa	6.0007 ± 0.013 kg/m3	0.007419 ± 4.5e-05 mPa·s
273.15 K, 333.56 kPa	6.9977 ± 0.015 kg/m3	0.007415 ± 4.5e-05 mPa·s
273.15 K, 376.67 kPa	7.9933 ± 0.017 kg/m3	0.00741 ± 4.5e-05 mPa·s
273.15 K, 420.03 kPa	9.0207 ± 0.019 kg/m3	0.007406 ± 4.5e-05 mPa·s
273.15 K, 459.55 kPa	9.9815 ± 0.021 kg/m3	0.007404 ± 4.5e-05 mPa·s
273.15 K, 459.58 kPa	9.9822 ± 0.021 kg/m3	0.007403 ± 4.5e-05 mPa·s
298.15 K, 44.7 kPa	0.80087 ± 0.0028 kg/m3	0.008128 ± 4.9e-05 mPa·s
298.15 K, 55.55 kPa	0.99693 ± 0.003 kg/m3	0.008133 ± 4.9e-05 mPa·s
298.15 K, 110.39 kPa	1.9989 ± 0.0048 kg/m3	0.00813 ± 4.9e-05 mPa·s
298.15 K, 164.09 kPa	2.9981 ± 0.0067 kg/m3	0.008127 ± 4.9e-05 mPa·s
298.15 K, 164.66 kPa	3.0089 ± 0.0067 kg/m3	0.008126 ± 4.9e-05 mPa·s
298.15 K, 217.05 kPa	4.0022 ± 0.0087 kg/m3	0.008127 ± 4.9e-05 mPa·s
298.15 K, 217.09 kPa	4.0029 ± 0.0087 kg/m3	0.008128 ± 4.9e-05 mPa·s
298.15 K, 268.78 kPa	5.0013 ± 0.011 kg/m3	0.008125 ± 4.9e-05 mPa·s
298.15 K, 318.03 kPa	5.9708 ± 0.013 kg/m3	0.008125 ± 4.9e-05 mPa·s
298.15 K, 369.4 kPa	7.0017 ± 0.015 kg/m3	0.00813 ± 4.9e-05 mPa·s
298.15 K, 418.44 kPa	8.0059 ± 0.017 kg/m3	0.008126 ± 4.9e-05 mPa·s
298.15 K, 464.73 kPa	8.9725 ± 0.019 kg/m3	0.008128 ± 4.9e-05 mPa·s
298.15 K, 498.81 kPa	9.6967 ± 0.021 kg/m3	0.008126 ± 4.9e-05 mPa·s
298.15 K, 513.59 kPa	10.014 ± 0.021 kg/m3	0.008121 ± 4.9e-05 mPa·s
298.15 K, 559.93 kPa	11.023 ± 0.023 kg/m3	0.008129 ± 4.9e-05 mPa·s
298.15 K, 600.75 kPa	11.93 ± 0.025 kg/m3	0.008132 ± 4.9e-05 mPa·s
298.15 K, 604 kPa	12.003 ± 0.025 kg/m3	0.008127 ± 4.9e-05 mPa·s
298.15 K, 646.36 kPa	12.965 ± 0.027 kg/m3	0.008128 ± 4.9e-05 mPa·s and 0.00813 ± 4.9e-05 mPa·s
298.15 K, 691.04 kPa	14.002 ± 0.03 kg/m3	0.008132 ± 4.9e-05 mPa·s
298.15 K, 692.19 kPa	14.029 ± 0.03 kg/m3	0.008133 ± 4.9e-05 mPa·s
298.15 K, 783.49 kPa	16.228 ± 0.034 kg/m3	0.008144 ± 4.9e-05 mPa·s
298.15 K, 849.03 kPa	17.879 ± 0.038 kg/m3	0.00815 ± 4.9e-05 mPa·s
298.15 K, 875.16 kPa	18.556 ± 0.039 kg/m3	0.008155 ± 4.9e-05 mPa·s
298.15 K, 878.68 kPa	18.648 ± 0.04 kg/m3	0.008158 ± 4.9e-05 mPa·s
366.15 K, 68.97 kPa	1.0047 ± 0.003 kg/m3	0.009907 ± 6e-05 mPa·s
366.15 K, 136.86 kPa	2.0051 ± 0.0048 kg/m3	0.009923 ± 6e-05 mPa·s
366.15 K, 270.35 kPa	4.0067 ± 0.0087 kg/m3	0.009941 ± 6e-05 mPa·s
366.15 K, 400.53 kPa	6.0046 ± 0.013 kg/m3	0.009956 ± 6e-05 mPa·s
366.15 K, 527.04 kPa	7.9924 ± 0.017 kg/m3	0.009974 ± 6e-05 mPa·s
366.15 K, 649.96 kPa	9.9702 ± 0.021 kg/m3	0.009996 ± 6e-05 mPa·s
366.15 K, 772.49 kPa	11.99 ± 0.025 kg/m3	0.01002 ± 6e-05 mPa·s
366.15 K, 897.82 kPa	14.109 ± 0.03 kg/m3	0.01005 ± 6.1e-05 mPa·s
366.15 K, 1004.8 kPa	15.963 ± 0.034 kg/m3	0.01007 ± 6.1e-05 mPa·s
366.15 K, 1119.8 kPa	18.006 ± 0.038 kg/m3	0.0101 ± 6.1e-05 mPa·s
366.15 K, 1222.3 kPa	19.872 ± 0.042 kg/m3	0.01013 ± 6.1e-05 mPa·s
366.15 K, 1738.7 kPa	30.044 ± 0.065 kg/m3	0.01032 ± 6.2e-05 mPa·s
366.15 K, 2181.8 kPa	40.086 ± 0.089 kg/m3	0.01055 ± 6.4e-05 mPa·s
366.15 K, 2559.1 kPa	50.015 ± 0.11 kg/m3	0.01083 ± 6.5e-05 mPa·s
366.15 K, 2883 kPa	60.029 ± 0.14 kg/m3	0.01114 ± 6.7e-05 mPa·s
366.15 K, 3154.4 kPa	70.033 ± 0.17 kg/m3	0.01149 ± 6.9e-05 mPa·s
366.15 K, 3381.1 kPa	80.175 ± 0.2 kg/m3	0.0119 ± 7.2e-05 mPa·s
366.15 K, 3559.5 kPa	90.05 ± 0.25 kg/m3	0.01232 ± 7.5e-05 mPa·s
366.15 K, 3704.1 kPa	100.205 ± 0.29 kg/m3	0.01282 ± 7.8e-05 mPa·s
366.15 K, 3704.9 kPa	100.267 ± 0.29 kg/m3	0.01282 ± 7.8e-05 mPa·s
373.15 K, 70 kPa	1.0004 ± 0.003 kg/m3	0.01008 ± 6.1e-05 mPa·s
373.15 K, 139.24 kPa	2.0008 ± 0.0048 kg/m3	0.0101 ± 6.1e-05 mPa·s
373.15 K, 275.58 kPa	4.0037 ± 0.0087 kg/m3	0.01012 ± 6.1e-05 mPa·s
373.15 K, 408.76 kPa	6.0045 ± 0.013 kg/m3	0.01014 ± 6.1e-05 mPa·s
373.15 K, 538.6 kPa	7.9996 ± 0.017 kg/m3	0.01017 ± 6.1e-05 mPa·s
373.15 K, 666.93 kPa	10.017 ± 0.021 kg/m3	0.0102 ± 6.2e-05 mPa·s
373.15 K, 733.66 kPa	11.085 ± 0.023 kg/m3	0.01021 ± 6.2e-05 mPa·s
373.15 K, 917.57 kPa	14.099 ± 0.03 kg/m3	0.01026 ± 6.2e-05 mPa·s
373.15 K, 1023.3 kPa	15.881 ± 0.034 kg/m3	0.01029 ± 6.2e-05 mPa·s
373.15 K, 1147.8 kPa	18.031 ± 0.038 kg/m3	0.01033 ± 6.2e-05 mPa·s
373.15 K, 1248 kPa	19.801 ± 0.042 kg/m3	0.01036 ± 6.2e-05 mPa·s
373.15 K, 1781.8 kPa	29.954 ± 0.064 kg/m3	0.01058 ± 6.4e-05 mPa·s
373.15 K, 1781.9 kPa	29.957 ± 0.064 kg/m3	0.01058 ± 6.4e-05 mPa·s
373.15 K, 2244.2 kPa	39.982 ± 0.087 kg/m3	0.01083 ± 6.6e-05 mPa·s
373.15 K, 2244.5 kPa	39.99 ± 0.087 kg/m3	0.01084 ± 6.6e-05 mPa·s
373.15 K, 2640.8 kPa	49.856 ± 0.11 kg/m3	0.01113 ± 6.7e-05 mPa·s
373.15 K, 2640.9 kPa	49.858 ± 0.11 kg/m3	0.01113 ± 6.7e-05 mPa·s
373.15 K, 2984.3 kPa	59.751 ± 0.14 kg/m3	0.01146 ± 6.9e-05 mPa·s
373.15 K, 2984.4 kPa	59.753 ± 0.14 kg/m3	0.01146 ± 6.9e-05 mPa·s
373.15 K, 3288.7 kPa	70.03 ± 0.17 kg/m3	0.01186 ± 7.1e-05 mPa·s
373.15 K, 3289 kPa	70.041 ± 0.17 kg/m3	0.01186 ± 7.1e-05 mPa·s
373.15 K, 3531.3 kPa	79.736 ± 0.2 kg/m3	0.01227 ± 7.4e-05 mPa·s
373.15 K, 3531.6 kPa	79.746 ± 0.2 kg/m3	0.01227 ± 7.4e-05 mPa·s
373.15 K, 3739.8 kPa	89.698 ± 0.25 kg/m3	0.01273 ± 7.7e-05 mPa·s
373.15 K, 3740.2 kPa	89.72 ± 0.25 kg/m3	0.01273 ± 7.7e-05 mPa·s
373.15 K, 3909.1 kPa	99.505 ± 0.3 kg/m3	0.01323 ± 8.1e-05 mPa·s
373.15 K, 3909.3 kPa	99.518 ± 0.3 kg/m3	0.01323 ± 8.1e-05 mPa·s
373.15 K, 4152.5 kPa	118.628 ± 0.42 kg/m3	0.01431 ± 9.3e-05 mPa·s
373.15 K, 4152.6 kPa	118.636 ± 0.42 kg/m3	0.01431 ± 9.3e-05 mPa·s
373.15 K, 4314.6 kPa	139.152 ± 0.41 kg/m3 and 139.148 ± 0.41 kg/m3	0.01561 ± 9.7e-05 mPa·s
373.15 K, 4400.6 kPa	157.919 ± 0.53 kg/m3	0.01691 ± 0.00011 mPa·s
373.15 K, 4400.7 kPa	157.947 ± 0.53 kg/m3	0.01692 ± 0.00011 mPa·s
373.15 K, 4432.9 kPa	169.072 ± 0.66 kg/m3 and 169.051 ± 0.66 kg/m3 and 169.087 ± 0.66 kg/m3	0.01772 ± 0.00013 mPa·s and 0.01773 ± 0.00013 mPa·s
373.15 K, 4458.2 kPa	181.456 ± 0.75 kg/m3 and 181.487 ± 0.75 kg/m3	0.01876 ± 0.00014 mPa·s
373.15 K, 4477.3 kPa	194.68 ± 0.75 kg/m3	0.02002 ± 0.00014 mPa·s
373.15 K, 4477.4 kPa	194.74 ± 0.75 kg/m3	0.02003 ± 0.00014 mPa·s
373.15 K, 4491.9 kPa	207.584 ± 0.78 kg/m3	0.02135 ± 0.00015 mPa·s
373.15 K, 4492 kPa	207.643 ± 0.78 kg/m3	0.02135 ± 0.00015 mPa·s
373.15 K, 4502.7 kPa	218.095 ± 0.81 kg/m3 and 218.113 ± 0.81 kg/m3	0.02247 ± 0.00016 mPa·s
373.15 K, 4512.2 kPa	227.171 ± 0.83 kg/m3 and 227.14 ± 0.83 kg/m3	0.02347 ± 0.00017 mPa·s
373.15 K, 4515 kPa	229.692 ± 0.84 kg/m3	0.02376 ± 0.00017 mPa·s

From the NIST ThermoML archive (doi:10.1021/je101178u)
